Counter-ions that a name gives are not always drawn.
Target: T1, cyclooxygenase 2 (COX2) (Homo sapiens, UniProt P35354)
T1 construct: gene PTGS2; recombinant COX-2 (kit)
T1 sequence (P35354 18-604): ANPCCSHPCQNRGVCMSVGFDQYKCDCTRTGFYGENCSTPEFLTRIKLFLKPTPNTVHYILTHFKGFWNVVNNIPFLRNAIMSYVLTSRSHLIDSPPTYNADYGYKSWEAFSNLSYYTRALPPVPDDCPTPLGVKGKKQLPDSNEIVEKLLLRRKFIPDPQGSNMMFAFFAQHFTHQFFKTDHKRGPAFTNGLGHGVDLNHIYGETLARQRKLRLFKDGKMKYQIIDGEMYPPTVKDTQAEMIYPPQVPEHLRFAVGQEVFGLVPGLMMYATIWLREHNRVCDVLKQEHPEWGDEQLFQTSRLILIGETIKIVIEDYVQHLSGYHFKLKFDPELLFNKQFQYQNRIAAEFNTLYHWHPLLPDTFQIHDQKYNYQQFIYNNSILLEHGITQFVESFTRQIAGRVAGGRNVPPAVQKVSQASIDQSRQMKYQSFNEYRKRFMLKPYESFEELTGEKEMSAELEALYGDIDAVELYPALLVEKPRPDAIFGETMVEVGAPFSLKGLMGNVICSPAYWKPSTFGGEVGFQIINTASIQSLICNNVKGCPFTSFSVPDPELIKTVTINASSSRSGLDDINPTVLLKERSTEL
Assay: COX activity assay with recombinant enzyme, […] compound (Fig. 4E)
Assay type: biochemical

In the case of O=C(OCC(O)CO)c1ccccc1Nc1ccnc2cc(Cl)ccc12 (stereo not shown) [compound 37, 2,3-dihydroxypropyl 2-[(7-chloroquinolin-4-yl)amino] benzoate; hydrochloride], the “COX activity assay with recombinant enzyme, 10 μM compound (Fig. 4E)” value is reported as “COX2 inhibition is required for glafenine-mediated CFTR correction and that glafenine interacts directly with COX2”.

Reference: paper PMC8930988, “The NSAID glafenine rescues class 2 CFTR mutants via cyclooxygenase 2 inhibition of the arachidonic acid pathway” (Scientific Reports, 2022)
